According to patent US4593092A, “Class of spiro-linked pyrrolidine-2,5-diones” (Kyorin Pharmaceutical Co., Ltd., priority 1983, dated 1986):
Like-named read-outs stand apart in the source and are kept apart here.

Legend:
aldose reductase [1] = target: T1, aldose reductase (Rattus norvegicus, UniProt P07943); experiment: Inhibitory activity on aldose reductase in vitro; type: biochemical; details: partially purified enzyme from rat lens
T1 construct: partially purified enzyme from rat lens; from tissue; host or cells: rat lens
Source text: (§1) Aldose reductase preparation used in this test was partially purified enzyme from rat lens.

aldose reductase [2] = target: T1, aldose reductase; experiment: Inhibitory activity on aldose reductase in vivo (serum of orally dosed rats added to the aldose reductase assay); details: oral, 0.5 ml added to assay
Protocol: as §1
In order to estimate whether the compounds are available for inhibiting the enzyme in vivo, following preliminary test was carried out.
2 and 5 hours later, blood samples were taken from the rats. A 0.5 ml of serum, instead of the compound, was added to the assay system described in Experiment 1.

[3] = tested on: pentylenetetrazole convulsion; experiment: Anti-convulsion test (pentylenetetrazole convulsion); type: in vivo; details: ICR mice; Example 2 orally at 50, 200, 500 and 800 mg/kg; pentylenetetrazole 100 mg/kg i.p. 2 hours later
Protocol: Mice (ICR stain) were administered orally with the compound of Example 2 at various doses of 50, 200, 500 and 800 mg/kg and injected with pentylenetetrazole at a dose of 100 mg/kg intraperitoneally 2 hours later.

[4] = Acute toxicity on mice, oral; details: mouse, in vivo
Protocol: Acute toxicity was tested by oral administration with the compounds of this invention in fasted mice (ICR stain).

[5] = serum taken 2 hr after administration, read-out: Inhibition % on aldose reductase in vivo, 2 hr after administration
[6] = serum taken 5 hr after administration, read-out: Inhibition % on aldose reductase in vivo, 5 hr after administration

SMILES	IC50 (aldose reductase [1])	inhibition at 25 mg/kg (aldose reductase [2]; [5])	inhibition at 25 mg/kg (aldose reductase [2]; [6])	anti-convulsion activity (suppressive effect on pentylenetetrazole convulsion) [3]	LD50 ([4]; oral, fasted ICR mice)	LD50 ([4]; po)
O=C1CC2(C(=O)N1)C(=O)N1CCCc3cccc2c31 (stereo not shown) [Example 1, 5',6'-Dihydrospiro[pyrrolidine-3,1'-[4H]pyrrolo[3,2,1-ij]quinoline]-2,2',5(1'H)-trione]	6000 nM	61.2%	49.8%	–	–	–
O=C1CC2(C(=O)N1)C(=O)N1CCCc3cc(Cl)cc2c31 (stereo not shown) [Example 2, 8'-Chloro-5',6'-dihydrospiro[pyrrolidine-3,1'-[4H]pyrrolo[3,2,1-ij]quinoline]-2,2',5(1'H)-trione]	400 nM	71.7%	68.5%	did not show any suppressive effect	–	–
O=C1CC2(C(=O)N1)C(=O)N1c3ccccc3Sc3cccc2c31 (stereo not shown) [Example 6, Spiro[pyrrolidine-3,2'-pyrrolo[3,2,1-kl]phenothiazine]-1',2,5(2'H)-trione]	350 nM	11.8%	13.4%	–	> 2000 mg/kg	–
O=C1CC2(C(=O)N1)C(=O)N1CCOc3cc(Cl)cc2c31 (stereo not shown) [Example 8, 8'-Chloro-2',3'-dihydrospiro[pyrrolidine-3,6'-pyrrolo[1,2,3-de][1,4]benzoxazine]-2,5,5'(6'H9-trione]	600 nM	62.5%	61.4%	–	–	> 2000 mg/kg
O=C1CC2(C(=O)N1)C(=O)N1CCOc3c(Cl)ccc2c31 (stereo not shown) [Example 12]	1500 nM	72.3%	73.9%	–	–	> 2000 mg/kg
O=C1CC2(C(=O)N1)C(=O)N1CCOc3c(Cl)c(Cl)cc2c31 (stereo not shown) [Example 13]	200 nM	78.2%	81.2%	–	–	> 2000 mg/kg
O=C1CC2(C(=O)N1)C(=O)N1CCOc3cc(F)cc2c31 (stereo not shown) [Example 14]	700 nM	75.1%	75.8%	–	–	> 1000 mg/kg
Cc1cc2c3c(c1)C1(CC(=O)NC1=O)C(=O)N3CCO2 (stereo not shown) [Example 16]	2500 nM	–	–	–	–	> 2000 mg/kg
O=C1NC(=O)C(c2ccccc2)(c2ccccc2)N1 [phenytoin]	–	–	–	dose-dependent protection against the tonic convulsion	–	–

More lines, main results first:

IC50 (aldose reductase [1])	inhibition at 25 mg/kg (aldose reductase [2]; [5])	inhibition at 25 mg/kg (aldose reductase [2]; [6])	SMILES	anti-convulsion activity (suppressive effect on pentylenetetrazole convulsion) [3]	LD50 ([4]; oral, fasted ICR mice)	LD50 ([4]; po)
9000 nM	53.3%	42.6%	CC1CCc2cccc3c2N1C(=O)C31CC(=O)NC1=O (stereo not shown) [Example 3]	–	–	–
350 nM	71.5%	70.2%	CC1CCc2cc(Cl)cc3c2N1C(=O)C31CC(=O)NC1=O (stereo not shown) [Example 4]	–	–	–
5000 nM	52.3%	47.6%	O=C1CC2(C(=O)N1)C(=O)N1CCOc3cccc2c31 (stereo not shown) [Example 5]	–	–	–
2000 nM	48.4%	33.8%	Cc1cc2c3c(c1)C1(CC(=O)NC1=O)C(=O)N3CCC2 (stereo not shown) [Example 7, 5',6'-Dihydro-8'-methylspiro[pyrrolidine-3,1'-[4H]pyrrolo[3,2,1-ij]quinoline]-2,2',5(1'H)-trione]	–	–	–
2000 nM	72.3%	71.3%	O=C1CC2(C(=O)N1)C(=O)N1CCSc3cccc2c31 (stereo not shown) [Example 11]	–	–	–
700 nM	74.9%	75.2%	O=C1CC2(C(=O)N1)C(=O)N1CCOc3c(F)c(F)cc2c31 (stereo not shown) [Example 15]	–	–	–
35000 nM	–	–	COc1cc2c3c(c1)C1(CC(=O)NC1=O)C(=O)N3CCO2 (stereo not shown) [Example 17]	–	–	–
–	79.8%	79.5%	O=C1NC(=O)[C@@]2(CCOc3ccc(F)cc32)N1 [Sorbinil, (4S)2,3-dihydro-6-fluorospiro[4H--1benzopyran-4,4 imidazolidine2',5dione, reference compound]	dose-dependent protection against the tonic convulsion	–	–
